# Experiments:
# OVCAR-3 = details: OVCAR-3, ovarian cancer, mutant p53; 48 h
# SF-268 = details: SF-268, CNS cancer (brain tumor), mutant p53; 48 h
# T-47D = details: T-47D, breast cancer, mutant p53; 48 h
# OVCAR-5 = details: OVCAR-5, ovarian cancer, p53 Lit. inconclusive; 48 h
# COLO 205 = details: COLO 205, colon cancer, mutant p53; 48 h
# SF-539 = details: SF-539, CNS cancer (brain tumor), mutant p53; 48 h
# SK-MEL-5 = details: SK-MEL-5, melanoma, wild-type p53; 48 h
# A549 = details: A549, non-small-cell lung cancer, wild-type p53; 48 h
# MCF7 = details: MCF7, breast cancer, wild-type p53; 48 h
# NCI/ADR-RES = details: ovarian cancer, mutant p53, 48 h
# CAKI-1 = details: CAKI-1, renal cancer, wild-type p53; 48 h
# SNB-75 = details: SNB-75, CNS cancer (brain tumor), mutant p53; 48 h
# UO-31 = details: UO-31, renal cancer, wild-type p53; 48 h
# MOLT-4 = details: MOLT-4, leukemia, mutant p53; 48 h
# SW-620 = details: SW-620, colon cancer, mutant p53; 48 h
# HCT-116 = details: HCT-116, colon cancer, wild-type p53; 48 h
# SNB-19 = details: SNB-19, CNS cancer (brain tumor), mutant p53; 48 h
# UACC-62 = details: UACC-62, melanoma, wild-type p53; 48 h
# MDA-MB-468 = details: MDA-MB-468, breast cancer, mutant p53; 48 h
# ACHN = details: renal cancer, wild-type p53, 48 h
# HCC-2998 = details: HCC-2998, colon cancer, mutant p53; 48 h
# OVCAR-8 = details: OVCAR-8, ovarian cancer, mutant p53; 48 h
# RPMI-8226 = details: RPMI-8226, leukemia, mutant p53; 48 h
# A498 = details: A498, renal cancer, wild-type p53; 48 h
# IGROV1 = details: IGROV1, ovarian cancer, mutant p53; 48 h
# M14 = details: M14, melanoma, mutant p53; 48 h
# MDA-MB-435 = details: MDA-MB-435, melanoma, mutant p53; 48 h
structure (smiles),measurement,setting,value
"COc1cc2c(c(OC)c1OC)-c1ccc(NNC(=S)N(Cc3cccc(C[N+](Cc4cccc(CNC56CC7CC(CC(C7)C5)C6)c4)(Cc4cccc(CNC56CC7CC(CC(C7)C5)C6)c4)Cc4cccc(CN(C(=S)NNc5ccc6c(cc5=O)C(NC(C)=O)CCc5cc(OC)c(OC)c(OC)c5-6)C56CC7CC(CC(C7)C5)C6)c4)c3)C34CC5CC(CC(C5)C3)C4)c(=O)cc1C(NC(C)=O)CC2 [Compound 3, [(bis{3-[(tricyclo[3.3.1.1^3,7]decan-1-ylamino)methyl]benzyl}ammonio)bis(methanediylbenzene-3,1-diylmethanediyl)]di-2-[(aS,7S)-7-(acetylamino)-1,2,3-trimethoxy-9-oxo-5,6,7,9-tetrahydrobenzo[a]heptalen-10-yl]-N-(tricyclo[3.3.1.1^3,7]decan-1-yl)hydrazinecarbothioamide chloride pentahydrate]",TGI,OVCAR-3,6.53 µM
same,TGI,SF-268,6.54 µM
same,TGI,T-47D,9.40 µM
same,TGI,OVCAR-5,5.03 µM
same,TGI,COLO 205,1.52 µM
same,TGI,SF-539,4.30 µM
same,TGI,SK-MEL-5,2.25 µM
same,TGI,A549,6.00 µM
same,TGI,MCF7,3.44 µM
same,TGI,NCI/ADR-RES,12.5 µM
same,TGI,CAKI-1,7.37 µM
same,TGI,SNB-75,6.68 µM
same,TGI,UO-31,7.20 µM
same,TGI,MOLT-4,1.93 µM
same,TGI,SW-620,2.06 µM
same,TGI,HCT-116,3.07 µM
same,TGI,SNB-19,6.20 µM
same,TGI,UACC-62,6.38 µM
same,TGI,MDA-MB-468,1.75 µM
same,TGI,ACHN,7.99 µM
same,TGI,HCC-2998,1.47 µM
same,TGI,OVCAR-8,7.49 µM
same,TGI,RPMI-8226,1.76 µM
same,TGI,A498,3.28 µM
same,TGI,IGROV1,5.95 µM
same,TGI,M14,2.26 µM
same,TGI,MDA-MB-435,3.50 µM

# Reference: PMC10892984, “Novel Antineoplastic Inducers of Mitochondrial Apoptosis in Human Cancer Cells” (Molecules, 2024)
